# Data: US11702630B2, “In vitro methods of differentiating stem cells into neurons and neurons generated using the same” (The J. David Gladstone Institutes, a testamentary trust …, priority 2016, dated 2023)
# Assays:
# Format in all cases: cell-based, human
# pluripotent stem cells [1] = assay: Wnt activation in the V2a interneuron protocol, gene expression of cervical and thoracic markers; details: FIG. 20B
# Description: Samples were lysed and RNA was extracted using the E.Z.N.A. Total RNA Kit (Omega Biotek, Norcross, Ga.). RNA (500 ng) was reverse-transcribed into cDNA using the iScript cDNA synthesis kit (BioRad, Hercules, Calif.). RT-qPCR was performed using Fast SYBR Green Master Mix (Life Technologies) and the primers listed in Table 1 below were annealed at 61° C. on the Step One Plus Real-Time PCR System (Life Technologies). Fold changes were calculated using the ΔΔCt method. For high throughput gene expression analysis, Fluidigm was used. Preamplified cDNA samples and primers were mixed with Sso Fast EvaGreen Supermix (BioRad) then loaded onto a 96.96 Dynamic Array integrated fluidic circuit (IFC) and ran on a BioMark HD system.
# (§1) For the “D0 CHIR treated” group, the GSK3 inhibitor, 2 μM CHIR990201 was added into the V2a interneuron protocol from day 0 to day 7. For the “D-2 CHIR treated” group, pluripotent stem cells were initially seeded at a higher density (120 k cells/cm^2) in the presence of 2 μM CHIR990201 for two days. The cells were then dissociated and re-plated at 25 k/cm^2 to begin the V2a interneuron protocol. CHIR990201 was kept in the media composition from day 0 to day 7. Further culture and analysis proceeded as previously described.
# pluripotent stem cells [2] = assay: Wnt activation in the V2a interneuron protocol, % CHX10+ cells; details: FIG. 20A
# Description: as §1
# hPSCs [3] = assay: Total number of cells and yield of CHX10+ cells per input pluripotent cell at day 17; details: for number of viable cells per 24-well culture at day 17: 100 nM RA and 100 nM pur, FIG. 2B
# Description: (§2) hPSCs were seeded in mTeSR supplemented with 10 μM ROCK inhibitor and dual SMAD inhibitors 0.2 μM LDN193189 and 10 μM SB431542 (StemGent, Cambridge, Mass.) at 5,000-100,000 cells/cm^2 onto 24-well plates coated with Matrigel. On day 3, medium was changed to mTeSR supplemented with dual SMAD inhibitors only. On day 5, the base medium was switched to neural induction medium (DMEM F:12 (Corning), N2 supplement (Life Technologies, Carlsbad, Calif.), L-Glutamine (VWR), 2 μg/ml heparin (Sigma Aldrich, St. Louis, Mo.), non-essential amino acids (VWR), penicillin-streptomycin (VWR) supplemented with fresh 0.4 μg/ml ascorbic acid (Sigma Aldrich) and 10 ng/ml brain derived neurotrophin factor (BDNF, R&D Systems, Minneapolis, Minn.)) supplemented with dual SMAD inhibitors and 10 nM-10 μM retinoic acid (Sigma Aldrich). On day 7, dual SMAD inhibition was ceased and 10 nM-10 μM retinoic acid, 10 nM-10 μM pur (EMD Millipore, Darmstast, Germany) and 100 nM-10 μM N—[N-(3,5-Difluorophenacetyl)-L-alanyl]-S-phenylglycine t-butyl ester (DAPT) were added to the neural induction medium. Medium was changed every 2 to 3 days throughout the differentiation, with fresh supplements added each time for up to 17 days.
# hPSCs [4] = assay: Flow cytometry of CHX10 at day 17 of V2a interneuron differentiation
# Description: as §2, with “([…],” for “(StemGent,”, “On day 7, dual SMAD inhibition was ceased and 10 nM-10 μM retinoic acid, 10 nM-10 μM pur (EMD Millipore, Darmstast, Germany) and 100 nM-10 μM N—[N-(3,5-Difluorophenacetyl)-L-alanyl]-S-phenylglycine t-butyl ester (DAPT) were added to the neural induction medium.” left out
# [5] = 2 μM CHIR added at D0, day 0 to day 7
# [6] = 2 μM CHIR added at D-2 and passage with CHIR, kept to day 7
structure (smiles),measurement,setting,value
"Cc1cnc(-c2cnc(NCCNc3ccc(C#N)cn3)nc2-c2ccc(Cl)cc2Cl)[nH]1 [CHIR, 6-[[2-[[4-(2,4-Dichlorophenyl)-5-(5-methyl-1H-imidazol-2-yl)-2-pyrimidinyl]amino]ethyl]amino]-3-pyridinecarbonitrile]",cervical and thoracic gene expression,pluripotent stem cells [1]; [5],slightly increased
same,cervical and thoracic gene expression,pluripotent stem cells [1]; [6],increased
same,% of CHX10+ cells,pluripotent stem cells [2]; [5],did not decrease
same,% of CHX10+ cells,pluripotent stem cells [2]; [6],greatly increased
C[C@H](NC(=O)Cc1cc(F)cc(F)c1)C(=O)NC(C(=O)OC(C)(C)C)c1ccccc1 (some centres unmarked) [DAPT],increase in number of CHX10+ cells per input pluripotent cell,"hPSCs [3]; 1 μM DAPT compared with 5 μM DAPT, FIG. 2C",~50%
same,number of viable cells per 24-well culture at day 17,hPSCs [3]; DAPT 1 μM,4.40 million cells
same,number of viable cells per 24-well culture at day 17,hPSCs [3]; DAPT 5 μM,2.85 million cells
same,CHX10+ population at day 17,"hPSCs [4]; DAPT 5 μM from day 7, RA and pur 100 nM each, FIG. 1E",~15%
same,CHX10+ population at day 17,"hPSCs [4]; DAPT 1 μm from day 7, RA and pur 100 nM each, FIG. 1E",~15%
"CC1=C(/C=C/C(C)=C/C=C/C(C)=C/C(=O)O)C(C)(C)CCC1 [RA, retinoic acid]",CHX10+ population at day 17,"hPSCs [4]; RA 100 nM starting at day 5, pur 1 μM and DAPT 5 μM from day 7, FIG. 1C",~6%
"c1ccc2c(Oc3nc(Nc4ccc(N5CCOCC5)cc4)c4ncn(C5CCCCC5)c4n3)cccc2c1 [pur, 9-Cyclohexyl-N-[4-(4-morpholinyl)phenyl]-2-(1-naphthalenyloxy)-9H-purin-6-amine]",Chx10+ cells after 17 days of differentiation,"hPSCs [4]; pur 100 nM from day 7, 100 nM RA and 5 μM DAPT, FIG. 1D",~30%
